Experimental data reported in ChEMBL document CHEMBL5291721, “A preclinical secondary pharmacology resource illuminates target-adverse drug reaction associations of marketed drugs” (Nat Commun, 2023).

What was measured:
Glucocorticoid receptor = biological target: T1, Glucocorticoid receptor (Homo sapiens, UniProt P04150)
T1 sequence (P04150 whole entry): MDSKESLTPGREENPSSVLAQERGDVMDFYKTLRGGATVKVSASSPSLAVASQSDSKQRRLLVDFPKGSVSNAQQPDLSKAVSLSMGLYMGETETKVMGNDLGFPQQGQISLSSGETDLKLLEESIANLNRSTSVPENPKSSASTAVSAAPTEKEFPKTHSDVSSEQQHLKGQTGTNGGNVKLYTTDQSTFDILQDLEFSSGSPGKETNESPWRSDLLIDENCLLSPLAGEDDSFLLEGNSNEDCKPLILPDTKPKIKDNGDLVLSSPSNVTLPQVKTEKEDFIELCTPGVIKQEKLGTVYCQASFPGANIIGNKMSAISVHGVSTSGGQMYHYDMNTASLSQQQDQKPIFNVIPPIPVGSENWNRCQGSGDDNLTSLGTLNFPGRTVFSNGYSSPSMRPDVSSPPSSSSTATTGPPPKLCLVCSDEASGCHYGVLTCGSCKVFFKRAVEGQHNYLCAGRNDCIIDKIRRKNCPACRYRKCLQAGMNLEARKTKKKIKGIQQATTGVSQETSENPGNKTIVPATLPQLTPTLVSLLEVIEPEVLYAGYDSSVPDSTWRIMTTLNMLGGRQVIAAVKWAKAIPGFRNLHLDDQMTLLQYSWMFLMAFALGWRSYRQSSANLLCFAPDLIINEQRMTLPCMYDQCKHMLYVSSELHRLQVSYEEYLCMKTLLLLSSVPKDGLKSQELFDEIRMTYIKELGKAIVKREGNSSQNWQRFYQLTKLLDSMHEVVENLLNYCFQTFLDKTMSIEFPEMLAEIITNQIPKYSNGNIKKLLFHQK

[1] = biological target: T2, Amine oxidase [flavin-containing] A (Homo sapiens, UniProt P21397); assay type: functional
T2 sequence (P21397 whole entry): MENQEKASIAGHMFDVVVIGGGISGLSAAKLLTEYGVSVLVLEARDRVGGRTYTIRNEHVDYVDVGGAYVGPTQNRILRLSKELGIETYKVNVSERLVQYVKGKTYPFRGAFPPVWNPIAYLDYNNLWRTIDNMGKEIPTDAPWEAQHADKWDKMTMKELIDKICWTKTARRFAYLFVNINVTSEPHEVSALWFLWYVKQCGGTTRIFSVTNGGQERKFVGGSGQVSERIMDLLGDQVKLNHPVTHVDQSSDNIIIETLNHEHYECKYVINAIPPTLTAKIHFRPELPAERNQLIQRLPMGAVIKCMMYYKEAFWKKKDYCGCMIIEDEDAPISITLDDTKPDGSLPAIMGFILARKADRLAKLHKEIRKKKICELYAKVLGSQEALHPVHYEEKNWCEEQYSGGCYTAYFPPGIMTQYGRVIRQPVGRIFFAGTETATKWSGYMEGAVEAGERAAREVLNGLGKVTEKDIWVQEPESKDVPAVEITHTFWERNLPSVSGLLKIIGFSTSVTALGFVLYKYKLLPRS

Endothelin-1 receptor = biological target: T3, Endothelin-1 receptor (Homo sapiens, UniProt P25101)
T3 sequence (P25101 whole entry): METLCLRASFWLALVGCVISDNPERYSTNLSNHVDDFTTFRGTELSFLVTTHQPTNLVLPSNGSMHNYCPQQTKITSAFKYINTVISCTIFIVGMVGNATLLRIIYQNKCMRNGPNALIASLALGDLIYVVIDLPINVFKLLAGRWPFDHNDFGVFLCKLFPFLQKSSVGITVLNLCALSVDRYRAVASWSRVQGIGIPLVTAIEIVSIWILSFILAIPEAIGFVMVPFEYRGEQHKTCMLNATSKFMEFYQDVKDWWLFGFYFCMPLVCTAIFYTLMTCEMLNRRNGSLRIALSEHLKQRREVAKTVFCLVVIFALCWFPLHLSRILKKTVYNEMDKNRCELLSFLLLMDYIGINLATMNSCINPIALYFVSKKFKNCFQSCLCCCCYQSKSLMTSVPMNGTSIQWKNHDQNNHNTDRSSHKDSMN

Histamine H1 receptor = Histamine H1 receptor (Homo sapiens, UniProt P35367)
Sequence of Histamine H1 receptor (P35367 whole entry): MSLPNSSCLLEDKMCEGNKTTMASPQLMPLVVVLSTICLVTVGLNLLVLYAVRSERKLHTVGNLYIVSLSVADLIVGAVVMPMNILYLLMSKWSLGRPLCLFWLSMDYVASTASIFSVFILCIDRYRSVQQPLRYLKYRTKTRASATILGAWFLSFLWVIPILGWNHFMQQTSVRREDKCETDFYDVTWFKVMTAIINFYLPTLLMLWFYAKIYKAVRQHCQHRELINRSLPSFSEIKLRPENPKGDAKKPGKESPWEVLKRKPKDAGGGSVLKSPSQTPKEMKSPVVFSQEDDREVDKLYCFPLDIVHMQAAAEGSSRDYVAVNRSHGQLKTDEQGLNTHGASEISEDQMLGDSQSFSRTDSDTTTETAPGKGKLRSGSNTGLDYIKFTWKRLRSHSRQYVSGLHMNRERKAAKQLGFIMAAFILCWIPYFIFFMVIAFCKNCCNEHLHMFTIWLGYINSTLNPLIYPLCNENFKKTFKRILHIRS

Cannabinoid receptor 1 = Cannabinoid receptor 1 (Homo sapiens, UniProt P21554); assay type: functional, cell-based
Sequence of Cannabinoid receptor 1 (P21554 whole entry): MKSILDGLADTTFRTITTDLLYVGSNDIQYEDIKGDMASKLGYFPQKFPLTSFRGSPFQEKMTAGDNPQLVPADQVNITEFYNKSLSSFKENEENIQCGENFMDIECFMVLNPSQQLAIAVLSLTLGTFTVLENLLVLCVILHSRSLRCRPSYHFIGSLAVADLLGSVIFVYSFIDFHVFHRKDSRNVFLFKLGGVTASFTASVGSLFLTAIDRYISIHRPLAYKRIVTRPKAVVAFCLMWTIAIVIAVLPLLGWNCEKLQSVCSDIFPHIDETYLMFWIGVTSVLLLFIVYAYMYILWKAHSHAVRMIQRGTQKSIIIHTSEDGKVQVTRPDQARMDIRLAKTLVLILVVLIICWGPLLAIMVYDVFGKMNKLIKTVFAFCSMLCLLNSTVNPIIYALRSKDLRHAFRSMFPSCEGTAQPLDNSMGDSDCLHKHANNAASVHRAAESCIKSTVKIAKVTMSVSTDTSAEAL

Progesterone receptor = biological target: T4, Progesterone receptor (Homo sapiens, UniProt P06401); assay type: functional
T4 sequence (P06401 whole entry): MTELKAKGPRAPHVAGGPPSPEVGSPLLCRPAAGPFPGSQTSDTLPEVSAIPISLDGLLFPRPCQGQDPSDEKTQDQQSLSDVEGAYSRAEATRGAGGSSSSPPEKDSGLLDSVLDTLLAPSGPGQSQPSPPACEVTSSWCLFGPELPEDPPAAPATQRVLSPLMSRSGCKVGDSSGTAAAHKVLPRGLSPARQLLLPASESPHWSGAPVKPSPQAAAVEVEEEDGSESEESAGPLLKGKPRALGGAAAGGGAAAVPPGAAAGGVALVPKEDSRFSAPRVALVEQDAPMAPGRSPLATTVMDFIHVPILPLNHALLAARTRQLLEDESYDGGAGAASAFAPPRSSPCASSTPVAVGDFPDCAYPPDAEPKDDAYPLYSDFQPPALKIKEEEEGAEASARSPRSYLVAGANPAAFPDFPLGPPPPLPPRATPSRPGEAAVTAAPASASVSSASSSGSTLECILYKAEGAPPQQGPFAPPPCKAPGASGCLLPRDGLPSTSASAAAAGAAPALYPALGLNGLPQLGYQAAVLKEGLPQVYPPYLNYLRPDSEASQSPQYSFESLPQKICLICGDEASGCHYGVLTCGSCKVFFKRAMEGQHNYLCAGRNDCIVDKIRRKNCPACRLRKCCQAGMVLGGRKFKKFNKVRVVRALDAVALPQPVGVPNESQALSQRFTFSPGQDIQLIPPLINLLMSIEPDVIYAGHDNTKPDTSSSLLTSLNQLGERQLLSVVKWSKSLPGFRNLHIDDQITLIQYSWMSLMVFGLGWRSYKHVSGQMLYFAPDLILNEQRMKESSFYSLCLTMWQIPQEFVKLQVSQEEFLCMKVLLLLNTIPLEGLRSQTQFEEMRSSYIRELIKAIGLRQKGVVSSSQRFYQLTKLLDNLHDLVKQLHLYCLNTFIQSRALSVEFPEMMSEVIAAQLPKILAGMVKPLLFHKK

[2] = biological target: cGMP-inhibited 3',5'-cyclic phosphodiesterase 3A (Homo sapiens, UniProt Q14432); assay type: functional
Sequence of cGMP-inhibited 3',5'-cyclic phosphodiesterase 3A (Q14432 whole entry): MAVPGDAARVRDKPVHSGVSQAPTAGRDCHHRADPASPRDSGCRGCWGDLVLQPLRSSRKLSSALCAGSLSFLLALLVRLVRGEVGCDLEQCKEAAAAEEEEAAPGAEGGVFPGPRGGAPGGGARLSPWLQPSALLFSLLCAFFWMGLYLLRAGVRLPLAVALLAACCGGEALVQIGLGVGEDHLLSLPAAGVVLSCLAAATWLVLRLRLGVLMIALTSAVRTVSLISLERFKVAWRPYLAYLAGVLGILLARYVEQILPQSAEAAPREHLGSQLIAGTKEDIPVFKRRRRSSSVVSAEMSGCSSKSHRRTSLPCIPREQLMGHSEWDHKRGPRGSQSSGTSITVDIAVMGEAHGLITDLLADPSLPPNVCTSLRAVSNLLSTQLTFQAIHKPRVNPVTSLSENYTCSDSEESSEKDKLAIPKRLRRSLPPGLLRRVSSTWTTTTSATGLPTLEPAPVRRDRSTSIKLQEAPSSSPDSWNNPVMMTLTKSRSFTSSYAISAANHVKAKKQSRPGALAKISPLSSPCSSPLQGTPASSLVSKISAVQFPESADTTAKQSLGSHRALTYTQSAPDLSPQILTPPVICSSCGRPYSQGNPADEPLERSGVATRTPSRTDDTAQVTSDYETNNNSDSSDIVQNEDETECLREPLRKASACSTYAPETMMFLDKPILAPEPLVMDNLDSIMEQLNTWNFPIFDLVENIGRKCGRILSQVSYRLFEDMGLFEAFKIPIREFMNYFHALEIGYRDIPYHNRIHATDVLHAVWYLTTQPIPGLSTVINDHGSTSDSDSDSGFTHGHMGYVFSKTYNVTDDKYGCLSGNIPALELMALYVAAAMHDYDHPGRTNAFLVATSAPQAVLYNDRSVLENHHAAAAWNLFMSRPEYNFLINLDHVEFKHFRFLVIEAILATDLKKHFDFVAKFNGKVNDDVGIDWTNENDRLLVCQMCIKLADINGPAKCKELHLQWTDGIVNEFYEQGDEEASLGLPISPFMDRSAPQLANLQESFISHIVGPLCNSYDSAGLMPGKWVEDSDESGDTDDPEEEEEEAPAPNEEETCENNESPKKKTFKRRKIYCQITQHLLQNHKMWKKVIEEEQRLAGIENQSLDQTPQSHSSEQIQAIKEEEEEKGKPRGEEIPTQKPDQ
Note: assay procedure not described here.

| SMILES | AC50 (Glucocorticoid receptor) [µM] | AC50 [1] [µM] | AC50 (Endothelin-1 receptor) [µM] | AC50 (Histamine H1 receptor) [µM] | AC50 (Cannabinoid receptor 1) [µM] | AC50 (Progesterone receptor) [µM] | AC50 [2] [µM] |
| --- | --- | --- | --- | --- | --- | --- | --- |
| C1=Cc2cccc(OCC3CNCCO3)c2C1 (stereo unspecified) [INDELOXAZINE] | > 30 | > 30 | > 30 | 17 | > 30 | > 30 | > 30 |
| CCCCCN(C)CCC(O)(P(=O)(O)O)P(=O)(O)O [IBANDRONIC ACID] | > 30 | > 30 | > 30 | > 30 | > 30 | > 30 | 1.9 |
| CCCCCCC(C)(C)c1cc(O)c2c(c1)OC(C)(C)C1CCC(=O)CC21 (stereo unspecified) [NABILONE] | > 30 | > 30 | > 30 | > 30 | 0.168 | > 30 | > 30 |
